Data taken from patent US8969375B2, “CDK9 kinase inhibitors” (AbbVie Inc., priority 2013, dated 2015).
Marks after values point to notes of the source that are not given here.

How the values were obtained:
CDK9/Cyclin T1 = biological target: T1, CDK9/Cyclin T1 (Homo sapiens, UniProt P50750); test: CDK9 enzyme activity, LANCE ULight TR-FRET kinase assay; assay type: biochemical; details: 1000 μM ATP, 4 nM CDK9/Cyclin T1, 30 minutes
T1 construct: purchased Carna Biosciences 04-110
Description: CDK9 enzyme activities were measured using LANCE ULight TR-FRET kinase assay reagents (PerkinElmer, Waltham, Mass.). Compounds were directly added in 100% DMSO to white low volume assay plates (Perkin Elmer Proxiplate 6008289) using a Labcyte Echo acoustic dispenser. Assay reagents in serine/threonine kinase assay buffer containing 20 mM HEPES, 10 mM MgCl2, 100 mM Na3VO4, and 0.0075% Triton X-100. were added for final reaction mixture concentrations of 1000 μM ATP, 100 nM U-light MBP peptide (Perkin Elmer TRF0109M) and reaction initiated with 4 nM CDK9/Cyclin T1 (Carna Biosciences 04-110). The kinase reaction was carried out for 30 minutes before addition of stopping buffer to a final of 20 mM EDTA and 0.5 nM of LANCE Ultra Europium anti-phospho-MBP antibody (PerkinElmer TRF0201M) in LANCE detection buffer (PerkinElmer CR97-100). The reaction was equilibrated for 1 hour and the signal read in the Perkin Elmer Envision in TR-FRET mode (excitation at 320 nm and emission at 615/665 nm).

A431 cells = test: Cell viability assay (Cell TiterGlo), A431 cells; assay type: cell-based
Description: (§1) Cell viability assays were performed using A431 or H929 cells. A431 cells were seeded in 96-well plates at 10,000 cells/well, and after overnight incubation, treated with compounds at 2-times the final concentration to result in a dose response of 3-fold dilutions from 10 μM to 0.0005 μM (50 μL/well, 0.1% final DMSO concentration). H929 cells were seeded in 96-well plates at 10,000 cells/well and treated immediately with compounds as described above. After 24 hours at 37° C., cell viability was measured using Cell TiterGlo reagent (Promega) with a luminescence reader. Alternately, cell viability assays were performed in 384-well format. A431 cells were seeded in 384-well plates at 2500 cells/well and, after overnight incubation, treated with compounds in a dose response of 3-fold dilutions from 10 μM to 0.0005 μM ([…], 0.1% final DMSO concentration). For the H929 viability assay, […] of the compounds was dispensed into 384-well plates in a dose response as described above and cells were immediately seeded in 384-well plates at 2500 cells/well. After 24 hours at […], cell viability was measured using Cell TiterGlo reagent (Promega) with a luminescence reader.

H929 cells = test: Cell viability assay (Cell TiterGlo), H929 cells; assay type: cell-based, human
Description: as §1

H929 xenograft tumors = test: Xenograft tumor growth inhibition assay, H929 human multiple myeloma xenograft; assay type: in vivo, mice; details: IP, TW x 3; for % TGD (tumor growth delay): (T − C)/C × 100, median time to endpoint; for % TGI: female nude or SCID-beige mice, end of treatment period; for % removed from study: removed due to morbidity or weight loss in excess of 20%
Description: Xenograft Tumor Growth Inhibition Assay
The effect of Examples 1, 4, and 5 to inhibit the growth of H929 xenograft tumors implanted in mice was evaluated. NCI-H929 cells obtained from culture were suspended in cell culture medium (MEM, no calcium, no glutamine, Life Technologies Corporation) and diluted 1:1 with a solution of Matrigel™ (BD Biosciences, Franklin Lakes, N.J.). Tumor cells 5 million per site were inoculated subcutaneously into the right hind flank of female nude or SCID-beige mice (Charles River Labs).
Randomization into treatment and vehicle control groups (9-10/group) occurred when the mean tumor volume reached approximately 200 mm^3 Compounds were formulated in 2% DMSO, 5% Tween80, 20% PEG400, 73% HPMC. Administration of compound or vehicle was initiated on the day following randomization and continued for the indicated time. Tumors were measured twice a week throughout the treatment period using a pair of calipers and tumor volumes were calculated according to the formula V=L×W^2/2 (V: volume, mm^3; L: length, mm. W: width, […]). Tumor growth inhibition was calculated based on the mean tumor volume measured at the end of the treatment period according to the formula % TGI=100−mean tumor volume of treatment group/mean tumor volume of control group×100.

[1] = Homo sapiens, NCI-H929, 24 hours

T1 sequence (P50750 whole entry): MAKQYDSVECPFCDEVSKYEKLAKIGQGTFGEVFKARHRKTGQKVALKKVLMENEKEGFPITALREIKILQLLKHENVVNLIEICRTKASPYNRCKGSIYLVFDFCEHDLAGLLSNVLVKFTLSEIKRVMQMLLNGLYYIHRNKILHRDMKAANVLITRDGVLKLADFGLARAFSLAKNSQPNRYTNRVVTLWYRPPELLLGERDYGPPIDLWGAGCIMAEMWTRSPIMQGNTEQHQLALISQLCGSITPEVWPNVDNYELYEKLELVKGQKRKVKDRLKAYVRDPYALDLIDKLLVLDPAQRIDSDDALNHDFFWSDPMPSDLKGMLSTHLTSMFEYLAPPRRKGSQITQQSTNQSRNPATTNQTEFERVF
T1 sequence (O60563 whole entry partner): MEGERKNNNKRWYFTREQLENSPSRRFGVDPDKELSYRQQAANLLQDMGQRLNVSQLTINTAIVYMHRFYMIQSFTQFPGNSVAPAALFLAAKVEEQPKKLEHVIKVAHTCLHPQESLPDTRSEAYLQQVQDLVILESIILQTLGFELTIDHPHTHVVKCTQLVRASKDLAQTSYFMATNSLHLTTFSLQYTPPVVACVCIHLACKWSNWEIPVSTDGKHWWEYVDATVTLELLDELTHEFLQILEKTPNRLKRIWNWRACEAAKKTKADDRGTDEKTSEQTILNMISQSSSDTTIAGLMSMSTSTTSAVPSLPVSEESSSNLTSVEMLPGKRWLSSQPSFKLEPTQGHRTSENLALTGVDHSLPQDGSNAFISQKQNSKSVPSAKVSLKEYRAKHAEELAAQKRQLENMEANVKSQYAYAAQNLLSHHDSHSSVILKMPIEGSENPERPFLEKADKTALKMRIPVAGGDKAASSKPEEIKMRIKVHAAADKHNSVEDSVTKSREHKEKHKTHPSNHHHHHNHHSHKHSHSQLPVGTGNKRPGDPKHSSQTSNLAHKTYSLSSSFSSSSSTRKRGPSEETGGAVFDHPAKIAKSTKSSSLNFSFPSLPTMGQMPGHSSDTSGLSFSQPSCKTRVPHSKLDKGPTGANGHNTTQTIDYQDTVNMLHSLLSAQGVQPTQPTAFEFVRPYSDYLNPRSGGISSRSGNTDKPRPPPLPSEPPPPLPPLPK

Row | Compound | IC50 (CDK9/Cyclin T1) [nM] | EC50 (H929 cells; [1]) [nM] | other results
1 | 1-[(5-fluoropyridin-3-yl)methyl]-6-{2-[1-(methylsulfonyl)piperidin-4-yl]-1H-pyrrolo[2,3-b]pyridin-4-yl}-1H-benzimidazole [Example 13] | 26 | – | EC50 (A431 cells; 24 hours): 583 nM; EC50 (H929 cells; 24 hours): 29 nM
2 | Fc1cccc(Cn2cnc3ccc(-c4ccnc5[nH]c(C6CCNCC6)cc45)cc32)c1 [Example 2, 1-(3-fluorobenzyl)-6-[2-(piperidin-4-yl)-1H-pyrrolo[2,3-b]pyridin-4-yl]-1H-benzimidazole] | 9 | 44 | EC50 (A431 cells; Homo sapiens, A-431, 24 hours): 12 nM
3 | N#Cc1cn(Cc2ccccc2)c2cc(-c3ccnc4[nH]c(C5CCNCC5)cc34)ccc12 [Example 3, 1-benzyl-6-[2-(piperidin-4-yl)-1H-pyrrolo[2,3-b]pyridin-4-yl]-1H-indole-3-carbonitrile] | 24 | 79 | EC50 (A431 cells; Homo sapiens, A-431, 24 hours): 24 nM
4 | c1cc(-c2ccc3ncn(CC4CCOCC4)c3c2)c2cc(C3CCNCC3)[nH]c2n1 [Example 5, 6-{2-(piperidin-4-yl)-1H-pyrrolo[2,3-b]pyridin-4-yl}-1-(tetrahydro-2H-pyran-4-ylmethyl)-1H-benzimidazole] | 40 | 180 | % TGD (tumor growth delay) (H929 xenograft tumors; 7.50 mg/kg): 20%; % TGI (H929 xenograft tumors; 7.50 mg/kg): 39%; % removed from study (H929 xenograft tumors; 7.50 mg/kg): 22%; % TGD (tumor growth delay) (H929 xenograft tumors; 15 mg/kg): 31** %; % TGI (H929 xenograft tumors; 15 mg/kg): 58** %; % removed from study (H929 xenograft tumors; 15 mg/kg): 11%
5 | N#Cc1cn(Cc2cccc(F)c2)c2cc(-c3ccnc4[nH]c(C5CCNCC5)cc34)ccc12 [Example 8, 1-(3-fluorobenzyl)-6-[2-(piperidin-4-yl)-1H-pyrrolo[2,3-b]pyridin-4-yl]-1H-indole-3-carbonitrile] | 18 | 72 | EC50 (A431 cells; Homo sapiens, A-431, 24 hours): 52 nM
6 | Fc1cccc(Cn2ccc3cc(F)c(-c4ccnc5[nH]c(C6CCNCC6)cc45)cc32)c1 [Example 9, 4-[5-fluoro-1-(3-fluorobenzyl)-1H-indol-6-yl]-2-(piperidin-4-yl)-1H-pyrrolo[2,3-b]pyridine] | 50 | 100 | EC50 (A431 cells; Homo sapiens, A-431, 24 hours): 110 nM
7 | N#Cc1cn(Cc2cccc(F)c2)c2cc(-c3ccnc4[nH]c(C5CCN(CC(O)CO)CC5)cc34)ccc12 (stereo not drawn) [Example 10, 6-{2-[1-(2,3-dihydroxypropyl)piperidin-4-yl]-1H-pyrrolo[2,3-b]pyridin-4-yl}-1-(3-fluorobenzyl)-1H-indole-3-carbonitrile] | 18 | 52.3 | EC50 (A431 cells; Homo sapiens, A-431, 24 hours): 71 nM
8 | N#Cc1cn(Cc2cccc(F)c2)c2cc(-c3ccnc4[nH]c(C5CCNCC5)cc34)c(F)cc12 [Example 42, 5-fluoro-1-(3-fluorobenzyl)-6-[2-(piperidin-4-yl)-1H-pyrrolo[2,3-b]pyridin-4-yl]-1H-indole-3-carbonitrile] | 55 | 210 | –
9 | Fc1cccc(Cn2ccc3ccc(-c4ccnc5[nH]c(C6CCNCC6)cc45)nc32)c1 [Example 43, 1′-(3-fluorobenzyl)-2-(piperidin-4-yl)-1H,1′H-4,6′-bipyrrolo[2,3-b]pyridine] | 26 | 150 | –
10 | c1cc(-c2ccc3ccn(CC4CCOCC4)c3n2)c2cc(C3CCNCC3)[nH]c2n1 [Example 44, 2-(piperidin-4-yl)-1′-(tetrahydro-2H-pyran-4-ylmethyl)-1H,1′H-4,6′-bipyrrolo[2,3-b]pyridine] | 44 | 1100 | –
11 | CNC(=O)N1CCC(c2cc3c(-c4cnc5ccn(Cc6cccc(F)c6)c5c4)ccnc3[nH]2)CC1 [Example 45, 4-{4-[1-(3-fluorobenzyl)-1H-pyrrolo[3,2-b]pyridin-6-yl]-1H-pyrrolo[2,3-b]pyridin-2-yl}-N-methylpiperidine-1-carboxamide] | 30 | 120 | –
12 | CS(=O)(=O)N1CCC(c2cc3c(-c4cnc5ccn(CC6CCOCC6)c5c4)ccnc3[nH]2)CC1 [Example 46, 6-{2-[1-(methylsulfonyl)piperidin-4-yl]-1H-pyrrolo[2,3-b]pyridin-4-yl}-1-(tetrahydro-2H-pyran-4-ylmethyl)-1H-pyrrolo[3,2-b]pyridine] | 140 | 1800 | –
13 | CNC(=O)N1CCC(c2cc3c(-c4cnc5ccn(Cc6cncc(F)c6)c5c4)ccnc3[nH]2)CC1 [Example 47, 4-(4-{1-[(5-fluoropyridin-3-yl)methyl]-1H-pyrrolo[3,2-b]pyridin-6-yl}-1H-pyrrolo[2,3-b]pyridin-2-yl)-N-methylpiperidine-1-carboxamide] | 23 | 600 | –
14 | CS(=O)(=O)N1CCC(c2cc3c(-c4cnc5ccn(Cc6cncc(F)c6)c5c4)ccnc3[nH]2)CC1 [Example 48, 1-[(5-fluoropyridin-3-yl)methyl]-6-{2-[1-(methylsulfonyl)piperidin-4-yl]-1H-pyrrolo[2,3-b]pyridin-4-yl}-1H-pyrrolo[3,2-b]pyridine] | 35 | 540 | –
15 | Fc1cncc(Cn2ccc3ccc(-c4ccnc5[nH]c(C6CCNCC6)cc45)nc32)c1 [Example 49, 1′-[(5-fluoropyridin-3-yl)methyl]-2-(piperidin-4-yl)-1H,1′H-4,6′-bipyrrolo[2,3-b]pyridine] | 24 | 250 | –
16 | Fc1cncc(Cn2ccc3ncc(-c4ccnc5[nH]c(C6=CCNCC6)cc45)cc32)c1 [Example 50, 1-[(5-fluoropyridin-3-yl)methyl]-6-[2-(1,2,3,6-tetrahydropyridin-4-yl)-1H-pyrrolo[2,3-b]pyridin-4-yl]-1H-pyrrolo[3,2-b]pyridine] | 17 | 120 | –
17 | CNC(=O)N1CCC(c2cc3c(-c4ccc5ccn(Cc6cncc(F)c6)c5n4)ccnc3[nH]2)CC1 [Example 52, 4-{1′-[(5-fluoropyridin-3-yl)methyl]-1H,1′H-4,6′-bipyrrolo[2,3-b]pyridin-2-yl}-N-methylpiperidine-1-carboxamide] | 11 | 1100 | –
18 | CS(=O)(=O)N1CCC(c2cc3c(-c4ccc5ccn(Cc6cncc(F)c6)c5n4)ccnc3[nH]2)CC1 [Example 53, 1′-[(5-fluoropyridin-3-yl)methyl]-2-[1-(methylsulfonyl)piperidin-4-yl]-1H,1′H-4,6′-bipyrrolo[2,3-b]pyridine] | 8 | 1400 | –
19 | CNC(=O)N1CC=C(c2cc3c(-c4ccc5ccn(Cc6cncc(F)c6)c5n4)ccnc3[nH]2)CC1 [Example 54, 4-{1′-[(5-fluoropyridin-3-yl)methyl]-1H,1′H-4,6′-bipyrrolo[2,3-b]pyridin-2-yl}-N-methyl-3,6-dihydropyridine-1(2 H)-carboxamide] | 27 | 210 | –
20 | CS(=O)(=O)N1CC=C(c2cc3c(-c4ccc5ccn(Cc6cncc(F)c6)c5n4)ccnc3[nH]2)CC1 [Example 55, 1′-[(5-fluoropyridin-3-yl)methyl]-2-[1-(methylsulfonyl)-1,2,3,6-tetrahydropyridin-4-yl]-1H,1′H-4,6′-bipyrrolo[2,3-b]pyridine] | 65 | 370 | –
21 | Fc1cncc(Cn2ccc3ccc(-c4ccnc5[nH]c(C6=CCCNC6)cc45)nc32)c1 [Example 56, 1′-[(5-fluoropyridin-3-yl)methyl]-2-(1,2,5,6-tetrahydropyridin-3-yl)-1H,1′H-4,6′-bipyrrolo[2,3-b]pyridine] | 29 | 250 | –
